According to ChEMBL document CHEMBL1201862, “PubChem BioAssay data set” (2004):
The source made the active and inactive calls.

Legend:
[1] = target: Tumor necrosis factor (Homo sapiens, UniProt P01375); assay: analog potency on TNFa NF-kB signaling – cell-based, revised, SAR follow-up (AID 2337); type: functional
[2] = target: T1, Nucleotide-binding oligomerization domain-containing protein 1 (Homo sapiens, UniProt Q9Y239); assay: blockers of NOD1 pathway activity – revised, SAR follow-up (AID 2333); type: functional
T1 sequence (Q9Y239 whole entry): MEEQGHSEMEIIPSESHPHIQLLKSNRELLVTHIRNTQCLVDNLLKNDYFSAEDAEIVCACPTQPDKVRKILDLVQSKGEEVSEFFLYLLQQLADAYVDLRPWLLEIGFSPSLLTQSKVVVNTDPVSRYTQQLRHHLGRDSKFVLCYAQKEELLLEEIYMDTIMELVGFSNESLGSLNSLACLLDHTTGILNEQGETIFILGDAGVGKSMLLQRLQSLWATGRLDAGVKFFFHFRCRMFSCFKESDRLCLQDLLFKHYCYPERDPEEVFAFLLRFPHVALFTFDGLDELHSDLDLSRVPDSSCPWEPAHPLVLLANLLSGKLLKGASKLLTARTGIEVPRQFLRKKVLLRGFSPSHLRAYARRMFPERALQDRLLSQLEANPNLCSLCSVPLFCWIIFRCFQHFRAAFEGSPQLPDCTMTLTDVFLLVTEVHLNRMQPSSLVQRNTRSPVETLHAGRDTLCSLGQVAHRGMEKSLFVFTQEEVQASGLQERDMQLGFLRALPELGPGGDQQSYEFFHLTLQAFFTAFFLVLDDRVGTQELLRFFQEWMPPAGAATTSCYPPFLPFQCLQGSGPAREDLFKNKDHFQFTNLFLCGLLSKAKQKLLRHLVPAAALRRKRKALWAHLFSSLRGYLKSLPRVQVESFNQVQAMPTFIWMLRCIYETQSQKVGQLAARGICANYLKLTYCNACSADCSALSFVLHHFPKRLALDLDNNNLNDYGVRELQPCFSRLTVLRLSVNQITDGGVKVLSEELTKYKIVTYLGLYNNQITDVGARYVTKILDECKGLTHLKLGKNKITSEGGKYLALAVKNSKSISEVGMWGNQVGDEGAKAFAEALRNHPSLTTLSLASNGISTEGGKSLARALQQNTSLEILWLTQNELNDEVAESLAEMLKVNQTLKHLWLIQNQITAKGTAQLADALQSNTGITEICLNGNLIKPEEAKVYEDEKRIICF

[3] = target: Interleukin-8 (Homo sapiens, UniProt P10145); assay: SAR analysis of tumor necrosis factor alpha (TNF-alpha) induced IL-8 secretion in MCF-7/NOD1 cells. [Related pubchem assays (depositor defined):AID1575, AID2250, AID2260]; type: functional, cell-based
Sequence of Interleukin-8 (P10145 whole entry, the tested form may be a part): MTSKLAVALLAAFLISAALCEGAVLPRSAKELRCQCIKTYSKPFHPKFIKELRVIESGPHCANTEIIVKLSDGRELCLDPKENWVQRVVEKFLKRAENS

[4] = target: Nucleotide-binding oligomerization domain-containing protein 2 (Homo sapiens, UniProt Q9HC29); assay: PubChem AID 2334; type: functional
Sequence of Nucleotide-binding oligomerization domain-containing protein 2 (Q9HC29 whole entry, the tested form may be a part): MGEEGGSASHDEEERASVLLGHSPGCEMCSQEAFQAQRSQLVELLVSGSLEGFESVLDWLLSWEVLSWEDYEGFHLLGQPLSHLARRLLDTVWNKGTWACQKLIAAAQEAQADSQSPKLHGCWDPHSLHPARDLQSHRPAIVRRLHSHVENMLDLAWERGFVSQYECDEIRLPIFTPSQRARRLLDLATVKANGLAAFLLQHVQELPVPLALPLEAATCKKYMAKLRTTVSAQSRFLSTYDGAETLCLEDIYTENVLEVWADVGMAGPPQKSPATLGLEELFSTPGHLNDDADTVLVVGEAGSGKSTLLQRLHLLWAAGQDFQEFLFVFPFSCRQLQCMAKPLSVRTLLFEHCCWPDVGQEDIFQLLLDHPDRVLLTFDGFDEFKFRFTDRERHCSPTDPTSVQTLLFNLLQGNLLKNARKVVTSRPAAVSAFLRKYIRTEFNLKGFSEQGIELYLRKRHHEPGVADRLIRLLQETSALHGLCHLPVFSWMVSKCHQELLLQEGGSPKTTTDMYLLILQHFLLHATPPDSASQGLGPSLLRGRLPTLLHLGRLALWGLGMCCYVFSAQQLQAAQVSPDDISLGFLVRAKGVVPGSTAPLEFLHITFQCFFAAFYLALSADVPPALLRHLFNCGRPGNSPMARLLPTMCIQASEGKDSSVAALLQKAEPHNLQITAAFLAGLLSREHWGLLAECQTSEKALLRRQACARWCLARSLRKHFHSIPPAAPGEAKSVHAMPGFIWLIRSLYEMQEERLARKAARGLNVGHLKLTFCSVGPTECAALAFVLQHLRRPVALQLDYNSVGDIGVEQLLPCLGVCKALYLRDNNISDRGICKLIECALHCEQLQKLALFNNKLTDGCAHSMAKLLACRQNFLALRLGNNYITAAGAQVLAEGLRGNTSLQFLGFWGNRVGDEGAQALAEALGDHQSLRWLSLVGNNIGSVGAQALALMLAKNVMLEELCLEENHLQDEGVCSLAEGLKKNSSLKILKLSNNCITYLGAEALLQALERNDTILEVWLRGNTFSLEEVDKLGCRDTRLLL

[5] = tested on: HEK293; assay: cells; conditions: Homo sapiens
[6] = tested on: HEK293; assay: PMA/Ionomycin induced NF-kB luciferase assay in 293- NF-kB-Luc stable cells. [Related pubchem assays: 1299, 1270, 1295, 1375, 1287, 1281, 1293, 1291, 1289, 1280, 465, 1364, 1282, 1372, 1365, 1370, 1367, 1366, 1269, 1373, 1292, 1290, 1302, 1371, 1283, 1271, 1294, 1374, 1368, 1369 ]; type: functional, cell-based; conditions: Homo sapiens
[7] = target: Luciferin 4-monooxygenase (Photinus pyralis, UniProt P08659); assay: In vitro luciferase assay using purified luciferase. [Related pubchem assays: 1299, 1270, 1295, 1375, 1287, 1281, 1293, 1291, 1289, 1280, 465, 1364, 1282, 1372, 1365, 1370, 1367, 1366, 1266, 1373, 1292, 1290, 1302, 1371, 1283, 1271, 1294, 1374, 1368, 1369 ]
Sequence of Luciferin 4-monooxygenase (P08659 whole entry): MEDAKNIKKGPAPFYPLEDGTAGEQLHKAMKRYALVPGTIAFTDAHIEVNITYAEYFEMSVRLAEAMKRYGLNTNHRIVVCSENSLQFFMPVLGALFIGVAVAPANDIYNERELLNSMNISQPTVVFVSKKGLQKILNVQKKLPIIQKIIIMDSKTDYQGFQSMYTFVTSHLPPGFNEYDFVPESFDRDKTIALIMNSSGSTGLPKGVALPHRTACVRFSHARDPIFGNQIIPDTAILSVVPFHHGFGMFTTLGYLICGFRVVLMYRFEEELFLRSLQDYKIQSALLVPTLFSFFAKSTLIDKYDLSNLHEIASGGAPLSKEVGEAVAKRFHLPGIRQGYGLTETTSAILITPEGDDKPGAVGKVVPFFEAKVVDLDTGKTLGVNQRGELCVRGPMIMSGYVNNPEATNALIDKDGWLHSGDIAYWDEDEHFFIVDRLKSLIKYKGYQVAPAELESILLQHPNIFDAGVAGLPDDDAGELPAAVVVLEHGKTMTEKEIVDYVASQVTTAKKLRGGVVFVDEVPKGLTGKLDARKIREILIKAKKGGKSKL

[8] = tested on: HEK293; assay: Cytotoxicity assay in HEK293 cells. [Related pubchem assays (depositor defined):AID1266, AID1269, AID1270, AID1271, AID1280, AID1281, AID1282, AID1283, AID1287, AID1289, AID1290, AID1291, AID1292, AID1293, AID1294, AID1295, AID1299, AID1302, AID1364, AID1365, AID1366, AID1367, AID1369, AID1370, AID1371, AID1372, AID1373, AID1374, AID1375, AID1384 …; type: functional, cell-based; conditions: Homo sapiens
[9] = target: Lysosomal acid glucosylceramidase (Homo sapiens, UniProt P04062); assay: Dose response cell-based high throughput screening assay to identify enhancers of beta-glucosidase activity. [Related pubchem assays: 784 ]; type: functional
Sequence of Lysosomal acid glucosylceramidase (P04062 whole entry): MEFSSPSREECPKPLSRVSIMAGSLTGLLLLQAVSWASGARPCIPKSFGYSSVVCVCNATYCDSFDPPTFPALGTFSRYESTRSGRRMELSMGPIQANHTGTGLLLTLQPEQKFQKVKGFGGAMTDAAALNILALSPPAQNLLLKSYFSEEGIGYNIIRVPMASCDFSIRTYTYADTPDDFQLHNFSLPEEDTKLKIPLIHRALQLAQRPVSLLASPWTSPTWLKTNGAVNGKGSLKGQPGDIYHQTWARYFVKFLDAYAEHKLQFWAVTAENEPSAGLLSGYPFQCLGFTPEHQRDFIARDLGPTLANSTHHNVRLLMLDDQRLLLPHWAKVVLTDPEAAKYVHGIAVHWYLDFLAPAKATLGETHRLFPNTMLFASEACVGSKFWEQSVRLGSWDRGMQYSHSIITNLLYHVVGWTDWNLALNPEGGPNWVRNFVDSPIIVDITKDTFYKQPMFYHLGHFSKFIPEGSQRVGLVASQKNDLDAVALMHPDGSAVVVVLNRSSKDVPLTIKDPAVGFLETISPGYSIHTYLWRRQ

[10] = tested on: Staphylococcus aureus; assay: Inhibitors of Bacterial Quorum Sensing Structure Activity Relationship (SAR) Analysis: Dose Response Assay. [Related pubchem assays: 700, 527 ]; type: functional, organism-based
[11] = target: T2, Cysteine protease ATG4B (Homo sapiens, UniProt Q9Y4P1); type: functional;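 note: Fluorescence-based dose-response confirmation assay measuring inhibition of ATG4B activity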
T2 sequence (Q9Y4P1 whole entry): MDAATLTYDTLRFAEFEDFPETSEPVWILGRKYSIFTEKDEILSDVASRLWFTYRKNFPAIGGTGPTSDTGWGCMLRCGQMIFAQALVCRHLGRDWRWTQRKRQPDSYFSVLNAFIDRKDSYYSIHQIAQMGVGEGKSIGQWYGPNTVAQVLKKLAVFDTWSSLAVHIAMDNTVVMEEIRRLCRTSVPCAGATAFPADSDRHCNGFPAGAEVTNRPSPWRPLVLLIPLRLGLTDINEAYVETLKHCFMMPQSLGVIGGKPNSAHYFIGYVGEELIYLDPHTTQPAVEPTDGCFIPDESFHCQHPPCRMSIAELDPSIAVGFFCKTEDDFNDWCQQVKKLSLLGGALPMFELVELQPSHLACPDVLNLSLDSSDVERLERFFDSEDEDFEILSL

[12] = target: Cytochrome P450 2C19 (Homo sapiens, UniProt P33261); assay: Cytochrome panel assay with activity outcomes. Panel member name: p450-cyp2c19 Compounds with AC50 equal or less than 10 uM are considered active; type: functional; conditions: read-out: AC50
Sequence of Cytochrome P450 2C19 (P33261 whole entry): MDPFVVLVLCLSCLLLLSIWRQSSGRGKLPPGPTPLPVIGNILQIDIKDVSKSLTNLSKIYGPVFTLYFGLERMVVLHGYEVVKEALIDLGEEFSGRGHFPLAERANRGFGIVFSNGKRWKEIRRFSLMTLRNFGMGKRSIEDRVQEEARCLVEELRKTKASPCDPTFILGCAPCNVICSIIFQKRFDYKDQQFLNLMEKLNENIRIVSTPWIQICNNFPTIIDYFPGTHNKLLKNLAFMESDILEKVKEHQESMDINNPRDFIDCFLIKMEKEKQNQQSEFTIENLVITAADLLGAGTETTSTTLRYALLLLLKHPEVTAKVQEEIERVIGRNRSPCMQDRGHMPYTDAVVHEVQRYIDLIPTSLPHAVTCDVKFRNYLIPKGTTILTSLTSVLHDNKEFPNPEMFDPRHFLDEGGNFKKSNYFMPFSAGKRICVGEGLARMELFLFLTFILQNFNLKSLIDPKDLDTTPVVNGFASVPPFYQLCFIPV

[13] = target: Phospholipase A2 (Homo sapiens, UniProt P04054); type: functional;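 note: confirmatory dose-response counterscreen on phospholipase A2, testing hits that came from an ultra-high-throughput screen for ATG4B inhibitors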
Sequence of Phospholipase A2 (P04054 whole entry): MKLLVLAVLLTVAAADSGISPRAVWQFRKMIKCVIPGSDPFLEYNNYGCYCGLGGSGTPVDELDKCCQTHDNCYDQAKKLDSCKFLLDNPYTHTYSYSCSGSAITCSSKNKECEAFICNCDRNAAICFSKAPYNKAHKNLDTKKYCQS

[14] = target: Cytochrome P450 3A4 (Homo sapiens, UniProt P08684);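 note: CYP3A4 tested as one member of a cytochrome P450 panel screen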
Sequence of Cytochrome P450 3A4 (P08684 whole entry): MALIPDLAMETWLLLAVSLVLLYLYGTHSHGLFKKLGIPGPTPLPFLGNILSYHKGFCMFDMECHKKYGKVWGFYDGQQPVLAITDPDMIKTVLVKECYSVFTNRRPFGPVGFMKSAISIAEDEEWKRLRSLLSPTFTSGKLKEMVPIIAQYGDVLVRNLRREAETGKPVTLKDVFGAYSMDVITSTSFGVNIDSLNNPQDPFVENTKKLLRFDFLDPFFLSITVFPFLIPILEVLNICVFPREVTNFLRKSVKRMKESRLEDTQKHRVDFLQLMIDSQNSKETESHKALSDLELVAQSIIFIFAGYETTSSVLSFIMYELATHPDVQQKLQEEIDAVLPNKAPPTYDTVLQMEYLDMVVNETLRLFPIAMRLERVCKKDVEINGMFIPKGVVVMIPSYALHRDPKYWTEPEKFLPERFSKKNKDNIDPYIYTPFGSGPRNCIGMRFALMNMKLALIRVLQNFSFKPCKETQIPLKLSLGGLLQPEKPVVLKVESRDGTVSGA

Sequence of Tumor necrosis factor (P01375 whole entry, the tested form may be a part): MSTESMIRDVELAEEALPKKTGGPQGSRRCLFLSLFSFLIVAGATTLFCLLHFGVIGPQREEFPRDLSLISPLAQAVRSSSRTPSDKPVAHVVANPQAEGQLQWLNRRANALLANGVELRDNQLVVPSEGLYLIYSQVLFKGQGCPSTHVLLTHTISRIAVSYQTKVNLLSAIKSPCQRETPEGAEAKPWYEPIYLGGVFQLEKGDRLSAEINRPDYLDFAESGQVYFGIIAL

## O=C(O)c1c(NC(=O)N2CCOCC2)sc2c1CCCC2
[1]
  IC50: > 20 µM (inactive)
[2]
  IC50: 1.47 µM (active)
[3]
  IC50: > 25 µM (inactive)
[4]
  IC50: > 20 µM (inactive)
[5]
  IC50: > 20 µM (inactive)

## COc1ccc(CNC(=O)c2ccc([N+](=O)[O-])o2)cc1
[6]
  EC50: 4.24 µM (not active)
[7]
  EC50: > 8 µM (not active)
[8]
  EC50: > 8 µM (inactive)

## CCOC(=O)N1CCC2(CC1)C(C#N)=C(N)Oc1c2c(C)nn1-c1cccc(Cl)c1
[9]
  EC50: > 10 µM (not active)

## Cc1c(Cl)cccc1Nc1ccccc1C(=O)O [TOLFENAMIC ACID]
[10]
  IC50: 0.459 µM (active)
[11]
  IC50: 8.17 µM (active)
[12]
  AC50: 15.8 µM (inconclusive)
[13]
  IC50: 7.74 µM (active)
[14]
  AC50: inconclusive
